Source: patent publication US9896441B2 (Lycera Corporation, priority 2014, dated 2018)

Key:
Gal4-RORγ-LBD = target: T1, Gal4-RORγ-LBD (Homo sapiens, UniProt P51449); assay: Gal4-RORγ Luciferase Reporter Assay in HEK-293T Cells; type: cell-based; conditions: HEK-293 cells, luciferase reporter; for Gal4-RORγ Assay Max Response: maximum response
T1 construct: expressed in transfected cells
T1 sequence (P51449 269-508 limits assumed): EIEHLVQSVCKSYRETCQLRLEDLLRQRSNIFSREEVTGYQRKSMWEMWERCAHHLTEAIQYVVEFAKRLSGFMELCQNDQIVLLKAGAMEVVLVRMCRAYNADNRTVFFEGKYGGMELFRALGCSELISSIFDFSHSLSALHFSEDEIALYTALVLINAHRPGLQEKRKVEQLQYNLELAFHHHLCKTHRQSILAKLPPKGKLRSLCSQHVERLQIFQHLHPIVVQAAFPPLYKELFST
Procedure, shortened: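 Max Response was taken as the upper plateau of a 4-parameter logistic fit of luciferase signal, normalized to 100 for wells without ursolic acid or compound. Transiently Gal4-RORγ-LBD/Gal4-luc transfected HEK-293 cells carrying […] ursolic acid were incubated with test compounds (0.2% DMSO) overnight at 37 °C and read with One-Glo.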

RORγ-LBD = target: T2, RORγ-LBD (Homo sapiens, UniProt P51449); assay: RORγ-Ligand Binding Domain (LBD) TR-FRET Assay; type: biochemical; conditions: for TR-FRET Assay Max Response: maximum response;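 on TR-FRET Assay Max Response: 665/615 nm signal ratio set to 100 without ursolic acid or test compound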
T2 construct: made in house; host or cells: SF9 cells (baculovirus); used as diluted lysate
T2 sequence (P51449 269-508 limits assumed): T1 sequence (P51449 269-508 limits assumed)
Procedure, shortened: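 Compounds, diluted in DMSO and then in assay buffer (1% DMSO final), were combined with His-tagged RORγ-LBD lysate at roughly 3 nM final and a 200 nM biotinylated SRC1 LXXLL peptide. Ursolic acid was included at 2 μM final. Coactivator recruitment was detected by TR-FRET.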

SMILES | EC50 (Gal4-RORγ-LBD; in presence of ursolic acid) [nM] | Gal4-RORγ Assay Max Response (Gal4-RORγ-LBD; in presence of ursolic acid) | EC50 (RORγ-LBD; RORγ-LBD TR-FRET assay) [nM] | TR-FRET Assay Max Response (RORγ-LBD; RORγ-LBD TR-FRET assay) | EC50 (Gal4-RORγ-LBD; with ursolic acid) [nM] | EC50 (RORγ-LBD; RORγ-LBD TR-FRET) [nM]
C/C(=C\c1ccc2c(c1)N(S(=O)(=O)c1cccc(C(F)(F)F)c1)C[C@H](CCC(=O)N1CCC1)O2)c1c(F)cccc1Cl [Example 127H, (S,E)-1-(azetidin-1-yl)-3-(6-(2-(2-chloro-6-fluorophenyl)prop-1-en-1-yl)-4-((3-(trifluoromethyl)phenyl)sulfonyl)-3,4-dihydro-2H-benzo[b][1,4]oxazin-2-yl)propan-1-one] | < 500 | ** (a value in the range of greater than 90 to 150) | < 500 | *** (a value in the range of greater than 150 to 200) | – | –
C/C(=C\c1ccc2c(c1)N(S(=O)(=O)c1cccc(C(F)(F)F)c1)CC(C(=O)O)C2)c1c(F)cccc1C(F)(F)F (stereo not drawn) [Example 15C, (E)-7-(2-(2-fluoro-6-(trifluoromethyl)phenyl)prop-1-en-1-yl)-1-((3-(trifluoromethyl)phenyl)sulfonyl)-1,2,3,4-tetrahydroquinoline-3-carboxylic acid] | – | – | – | – | 500 to 5000 | < 500
COC(=O)CCC1CC(S(=O)(=O)c2ccc(F)c(OC)c2)c2cc(/C=C(\C)c3c(F)cccc3Cl)ccc2O1 (stereo not drawn) [Example 186F, methyl (E)-3-(6-(2-(2-chloro-6-fluorophenyl)prop-1-en-1-yl)-4-((4-fluoro-3-methoxyphenyl)sulfonyl)chroman-2-yl)propanoate] | < 500 | * (a value in the range of 30 to 90) | < 500 | *** (a value in the range of greater than 150 to 200) | – | –
CCOc1nn(CC)cc1S(=O)(=O)N1C[C@H](CCC(=O)OC)Oc2ccc(/C=C/c3ccccc3C)cc21 [Example 89AT, (S,E)-methyl 3-(4-((3-ethoxy-1-ethyl-1H-pyrazol-4-yl)sulfonyl)-6-(2-methylstyryl)-3,4-dihydro-2H-benzo[b][1,4]oxazin-2-yl)propanoate] | – | – | – | – | 500 to 5000 | < 500
COc1cc(S(=O)(=O)N2c3cc(OC4CCc5ccccc54)ccc3C[C@@H](C(=O)O)[C@H]2C)ccc1F (mixture of isomers) [Example 22, (2R,3R)-7-((2,3-Dihydro-1H-inden-1-yl)oxy)-1-((4-fluoro-3-methoxy-phenyl)sulfonyl)-2-methyl-1,2,3,4-tetrahydroquinoline-3-carboxylic acid] | – | – | – | – | 500 to 5000 | < 500
CCOc1ncc(C(F)(F)F)cc1S(=O)(=O)N1C[C@H](CNC(=O)CCC(=O)O)Oc2ccc(/C=C/c3c(F)cccc3Cl)cc21 [Example 109F, (S,E)-4-(((6-(2-chloro-6-fluorostyryl)-4-((2-ethoxy-5-(trifluoro-methyl)pyridin-3-yl)sulfonyl)-3,4-dihydro-2H-benzo[b][1,4]oxazin-2-yl)methyl)amino)-4-oxobutanoic acid] | 500 to 5000 | ** (a value in the range of greater than 90 to 150) | < 500 | *** (a value in the range of greater than 150 to 200) | – | –
CCOc1ncc(Cl)cc1S(=O)(=O)N1C[C@H](CCC(=O)O)Oc2ccc(/C=C/c3c(F)cccc3Cl)cc21 [Example 89CX, (S,E)-3-(4-((5-chloro-2-ethoxypyridin-3-yl)sulfonyl)-6-(2-chloro-6-fluorostyryl)-3,4-dihydro-2H-benzo[b][1,4]oxazin-2-yl)propanoic acid] | – | – | – | – | 500 to 5000 | < 500
COC(=O)CC[C@H]1CN(S(=O)(=O)c2cccc(OC(F)F)c2)c2cc(/C=C/c3ccccc3C#N)ccc2O1 [Example 89AR, (S,E)-methyl 3-(6-(2-cyanostyryl)-4-((3-(difluoromethoxy)phenyl)sulfonyl)-3,4-dihydro-2H-benzo[b][1,4]-oxazin-2-yl)propanoate] | – | – | – | – | 500 to 5000 | < 500
CCOC(=O)C1CCN(CC[C@H]2CN(S(=O)(=O)c3cccc(C(F)(F)F)c3)c3cc(/C=C(\C)c4c(F)cccc4Cl)ccc3O2)CC1 [Example 119F, ethyl (S,E)-1-(2-(6-(2-(2-chloro-6-fluorophenyl)prop-1-en-1-yl)-4-((3-(trifluoromethyl)phenyl)sulfonyl)-3,4-dihydro-2H-benzo[b][1,4]oxazin-2-yl)ethyl)piperidine-4-carboxylate] | > 10000 | – | < 500 | *** (a value in the range of greater than 150 to 200) | – | –
C/C(=C\c1ccc2c(c1C)N(S(=O)(=O)c1cccc(OC(F)F)c1)C[C@H](CCC(=O)O)O2)c1c(F)cccc1Cl [Example 60, (S,E)-3-(6-(2-(2-Chloro-6-fluorophenyl)prop-1-en-1-yl)-4-((3-(difluoromethoxy)phenyl)sulfonyl)-5-methyl-3,4-dihydro-2H-benzo[b][1,4]oxazin-2-yl)propanoic acid] | – | – | – | – | 500 to 5000 | < 500
COc1cc(S(=O)(=O)N2C[C@H](CNC(=O)[C@H]3CC[C@H](C(=O)O)CC3)Oc3ccc(/C=C(\C)c4c(F)cccc4Cl)cc32)ccc1F [Example 135C, (1S,4r)-4-((((S)-6-((E)-2-(2-chloro-6-fluoro-phenyl)prop-1-en-1-yl)-4-((4-fluoro-3-methoxy-phenyl)sulfonyl)-3,4-dihydro-2H-benzo[b][1,4]oxazin-2-yl)methyl)carbamoyl)-cyclohexane-1-carboxylic acid] | 500 to 5000 | * (a value in the range of 30 to 90) | < 500 | *** (a value in the range of greater than 150 to 200) | – | –
C/C(=C\c1ccc2c(c1)N(S(=O)(=O)c1c(Cl)nc3sccn13)C[C@H](CCC(=O)O)O2)c1c(F)cccc1Cl [Example 86U, (S,E)-3-(6-(2-(2-chloro-6-fluorophenyl)prop-1-en-1-yl)-4-((6-chloroimidazo[2,1-b]thiazol-5-yl)sulfonyl)-3,4-dihydro-2H-benzo[b][1,4]oxazin-2-yl)propanoic acid] | – | – | – | – | 500 to 5000 | < 500
COc1cc(S(=O)(=O)N2C[C@H](CNC(=O)CCC(=O)O)Oc3ccc(/C=C(\C)c4c(F)cccc4Cl)cc32)ccc1F [Example 132, (S,E)-4-(((6-(2-(2-Chloro-6-fluorophenyl)prop-1-en-1-yl)-4-((4-fluoro-3-methoxyphenyl)sulfonyl)-3,4-dihydro-2H-benzo[b][1,4]oxazin-2-yl)methyl)amino)-4-oxobutanoic acid] | 500 to 5000 | *** (a value in the range of greater than 150 to 200) | < 500 | **** (a value greater than 200) | – | –
O=C(O)CC[C@H]1CN(S(=O)(=O)c2cccc(C(F)(F)F)c2)c2cc(/C=C/c3cc(F)ccc3C(F)(F)F)ccc2O1 [Example 89CP, (S,E)-3-(6-(5-fluoro-2-(trifluoromethyl)styryl)-4-((3-(trifluoromethyl)phenyl)sulfonyl)-3,4-dihydro-2H-benzo[b][1,4]-oxazin-2-yl)propanoic acid] | – | – | – | – | < 500 | < 500
C/C(=C\c1ccc2c(c1)N(S(=O)(=O)c1cc(C(F)(F)F)ccc1OCCO)C[C@H](CCC(=O)N1CCC(C(=O)O)CC1)O2)c1c(F)cccc1Cl [Example 129M, (S,E)-1-(3-(6-(2-(2-chloro-6-fluorophenyl)-prop-1-en-1-yl)-4-((2-(2-hydroxyethoxy)-5-(trifluoromethyl)phenyl)sulfonyl)-3,4-dihydro-2H-benzo[b][1,4]oxazin-2-yl)propanoyl)piperidine-4-carboxylic acid] | 500 to 5000 | ** (a value in the range of greater than 90 to 150) | < 500 | *** (a value in the range of greater than 150 to 200) | – | –
C/C(=C\c1ccc2c(c1)N(S(=O)(=O)c1cccc(C(F)(F)F)c1)C[C@H](CCC(=O)N(C)CC(=O)O)O2)c1c(F)cccc1Cl [Example 129F, (S,E)-N-(3-(6-(2-(2-chloro-6-fluorophenyl)-prop-1-en-1-yl)-4-((3-(trifluoromethyl)phenyl)sulfonyl)-3,4-dihydro-2H-benzo[b][1,4]oxazin-2-yl)propanoyl)-N-methylglycine] | < 500 | *** (a value in the range of greater than 150 to 200) | < 500 | *** (a value in the range of greater than 150 to 200) | – | –
COC(=O)c1ccc(C(=O)NC[C@H]2CN(S(=O)(=O)c3ccc(F)c(OC)c3)c3cc(/C=C(\C)c4c(F)cccc4Cl)ccc3O2)cc1 [Example 133, Methyl (S,E)-4-(((6-(2-(2-chloro-6-fluorophenyl)prop-1-en-1-yl)-4-((4-fluoro-3-methoxyphenyl)sulfonyl)-3,4-dihydro-2H-benzo[b][1,4]oxazin-2-yl)methyl)carbamoyl)benzoate] | < 500 | * (a value in the range of 30 to 90) | < 500 | **** (a value greater than 200) | – | –
